Measurements from publication PMC7758879, “Tyramine Acts Downstream of Neuronal XBP-1s to Coordinate Inter-tissue UPR^ER Activation and Behavior in C. elegans” (Developmental Cell, 2020).

Biological target: T1, OCTR-1 (Caenorhabditis elegans, UniProt Q7JP62)
T1 construct: cDNA in KSM vector, cRNA injected into Xenopus laevis oocytes; co-expressed with mouse GIRK1/GIRK2 as reporter
T1 sequence (Q7JP62 1-406): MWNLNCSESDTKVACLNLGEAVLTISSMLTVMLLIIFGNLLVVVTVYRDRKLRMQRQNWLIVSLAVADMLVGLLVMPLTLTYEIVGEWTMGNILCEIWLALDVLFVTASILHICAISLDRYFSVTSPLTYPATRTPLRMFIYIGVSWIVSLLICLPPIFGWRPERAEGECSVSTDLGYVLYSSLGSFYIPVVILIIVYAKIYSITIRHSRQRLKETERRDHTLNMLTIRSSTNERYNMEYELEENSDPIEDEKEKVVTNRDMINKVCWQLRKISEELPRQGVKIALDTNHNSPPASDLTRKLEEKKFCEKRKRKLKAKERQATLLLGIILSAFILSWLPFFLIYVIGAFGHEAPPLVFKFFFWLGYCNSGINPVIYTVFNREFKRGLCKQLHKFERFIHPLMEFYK
Experiment: two-electrode voltage clamp, GIRK1/[…] current, Xenopus oocytes
Format: cell-based

Row | SMILES | EC50 [µM]
1 | NC[C@H](O)c1ccc(O)cc1 [Oct, octopamine] | 0.114
2 | NCCc1ccc(O)cc1 [Tyr, tyramine] | 12.9
